“Also recorded” adds a separate entry of the source.
Assays:
Assay type in all cases: in vivo, mouse
[1] = system: c-Myc; experiment: Immunoblotting of total protein preps from topically treated skin: c-Myc; settings: 2 topical doses of 50 uM (48 hours), vs vehicle control
Description: (§1) Mice. Animals were acquired from Jackson Labs (K15-CrePR, Lgr5-CreER and Lgr6-CreER), Rutter Lab (Mpc^fl/fl) and Seth Lab (Ldha^fl/fl) and maintained under conditions set forth by IUCUC and ARC. For experiments that include analysis of the telogen stage of the hair cycle, animals were harvested at post-natal day 50, for telogen-anagen transition animals were harvested at day 70, and for anagen animals were harvested at post-natal day 90. For experiments that include analysis of transgenic animals, K15-CrePR animals were shaved and treated by intraperitoneal injections of mifepristone and Lgr5-CreER and Lgr6-CreER animals were shaved and treated with tamoxifen (10 mg/ml dissolved in sunflower seed oil, 2 mg per day for 3 days) during telogen (post-natal day 50), and monitored for hair regrowth following shaving. For FIGS. 6A-6G, wildtype C57BL/6J animals were shaved at post-natal day 50 and treated topically with Transderma Plo Gel Ultramax Base (TR220) (vehicle) or RCGD423 (50 uM) for indicated periods of time. Both male and female animals were used in this study in approximately equal numbers with no apparent difference in phenotype between genders. […]
(§2) Histology, Immunostaining and Immunoblotting. […] Images were collected on an Olympus BX43 Upright Microscope and Zeiss Model Axio Imager M1 Upright Fluorescence Microscope. […]

[2] = system: n-Myc; experiment: Immunoblotting of total protein preps from topically treated skin: n-Myc; settings: 2 topical doses of 50 uM (48 hours), vs vehicle control
Description: as §1, §2

[3] = system: Ldha; experiment: Immunoblotting of total protein preps from topically treated skin: Ldha; settings: 2 topical doses of 50 uM (48 hours), vs vehicle control
Description: as §1, §2

[4] = system: Ldh; experiment: Plate-reader Ldh activity assay on lysates from total epidermis after topical treatment; settings: vs vehicle
Description: as §1, with “shaving.” for “shaving. For FIGS. 6A-6G, wildtype C57BL/6J animals were shaved at post-natal day 50 and treated topically with Transderma Plo Gel Ultramax Base (TR220) (vehicle) or RCGD423 (50 uM) for indicated periods of time. Both male and female animals were used in this study in approximately equal numbers with no apparent difference in phenotype between genders.”
Plate-reader Ldh assay. Ldh activity was determined in cell lysates by measuring the formation of soluble XTT formazan in direct relation to production of NADH over time at 475 nm at 37° C. using a Synergy-MX plate reader (Biotek Instruments). […] Protein content was determined using the BCA Protein Assay Kit (Thermo Scientific Pierce). […] Ldh activity was determined in cell lysates by measuring the change in absorbance of their common substrate or product, NADH, over time at 340 nm at 25° C. using a Synergy-MX plate reader (Biotek Instruments).

[5] = system: Ldh; experiment: In situ Ldh activity staining of skin sections after topical treatment; settings: epidermis and dermis
Description: as §1, with “genders. All phenotypes described are representative of a minimum of n=3 littermate pairs as indicated in the description of each experiment.” for “genders.”

[6] = system: lactate; experiment: LC-MS-based metabolomics of lactate after topical treatment; settings: 48 hours, vs vehicle
Description: as §1, with “time.” for “time. Both male and female animals were used in this study in approximately equal numbers with no apparent difference in phenotype between genders.”
Mass spectrometry-based metabolomics analysis. […] The samples were analyzed with an UltiMate 3000RSLC (Thermo Scientific) coupled to a Q Exactive mass spectrometer (Thermo Scientific). […] Metabolites were quantified with TraceFinder 3.3 using accurate mass measurements (<3 ppm) and retention times.

[7] = system: Stat-3; experiment: Immunostaining with phospho-Stat3 antibody in HFSCs after topical treatment
Description: as §1, §2

[8] = molecular target: HFSCs; experiment: Immunohistochemistry for Ki-67 in HFSCs after topical treatment; settings: same tissue
Description: as §1, §2

[9] = system: pStat1; experiment: IHC for pStat1 in topically treated skin; settings: topical, shaved mice day 50, skin harvested 48 hours after treatment
Experimental: (§3) FIG. 5. Stimulation of Jak-Stat signaling and the hair cycle. RCGD423 was applied topically to shaved mice at day 50. 48 hours after treatment, the skin was harvested and prepared for IHC. […] Scale bars indicate 20 micrometers.
as §1, with “shaving.” for “shaving. For FIGS. 6A-6G, wildtype C57BL/6J animals were shaved at post-natal day 50 and treated topically with Transderma Plo Gel Ultramax Base (TR220) (vehicle) or RCGD423 (50 uM) for indicated periods of time. Both male and female animals were used in this study in approximately equal numbers with no apparent difference in phenotype between genders.”
as §2

[10] = system: pStat5; experiment: IHC for pStat5 in topically treated skin; settings: topical, shaved mice day 50, skin harvested 48 hours after treatment
Experimental: as §3
as §1, with “shaving.” for “shaving. For FIGS. 6A-6G, wildtype C57BL/6J animals were shaved at post-natal day 50 and treated topically with Transderma Plo Gel Ultramax Base (TR220) (vehicle) or RCGD423 (50 uM) for indicated periods of time. Both male and female animals were used in this study in approximately equal numbers with no apparent difference in phenotype between genders.”
as §2

[11] = system: hair cycle; experiment: Topical treatment of shaved animals in telogen (day 50), hair cycle observation
Description: Mice. Animals were acquired from Jackson Labs (K15-CrePR, Lgr5-CreER and Lgr6-CreER), Rutter Lab (Mpc^fl/fl) and Seth Lab (Ldha^fl/fl) and maintained under conditions set forth by IUCUC and ARC. For experiments that include analysis of the telogen stage of the hair cycle, animals were harvested at post-natal day 50, for telogen-anagen transition animals were harvested at day 70, and for anagen animals were harvested at post-natal day 90. For experiments that include analysis of transgenic animals, K15-CrePR animals were shaved and treated by intraperitoneal injections of mifepristone and Lgr5-CreER and Lgr6-CreER animals were shaved and treated with tamoxifen (10 mg/ml dissolved in sunflower seed oil, 2 mg per day for 3 days) during telogen (post-natal day 50), and monitored for hair regrowth following shaving. For FIGS. 6A-6G, wildtype C57BL/6J animals were shaved at post-natal day 50 and treated topically with Transderma Plo Gel Ultramax Base (TR220) (vehicle) or RCGD423 (50 uM) for indicated periods of time. Both male and female animals were used in this study in approximately equal numbers with no apparent difference in phenotype between genders. All phenotypes described are representative of a minimum of n=3 littermate pairs as indicated in the description of each experiment. No statistical measure was used to determine the sample size beforehand, nor were statistics used to measure effects, as the results were essentially positive or negative as represented in the figures. The results described include data from all treated animals. The investigators were not blinded to allocation during the experimental data collection, nor were the experiments randomized. The results shown were representative images from at least three independently treated animals, and genotyping was performed both before and after animal treatment for confirmation.

[12] = topical treatment of animals in telogen (day 50)

## Brc1ccc(Nc2nc(-c3ccccc3)cs2)cc1 [RCGD423]
[1]
  c-Myc protein levels: increased; also recorded: induced
[2]
  n-Myc protein levels: increased; also recorded: induced
[3]
  Ldha protein levels: increased; also recorded: induced
[4]
  Ldh activity, in vitro measurement on lysates from total epidermis: increase in activity
[5]
  Ldh activity, in situ staining: strong induction
[6]
  lactate level: large increase
[7]
  Stat-3 activation (phospho-Stat3 immunostaining): activated
[8]
  Ki-67 in HFSCs: induction
[9]
  effect on pStat1: does not dramatically affect
[10]
  effect on pStat5: does not dramatically affect
[11]; [12]
  hair cycle: robust acceleration of the hair cycle
  interfollicular epidermis proliferation: minor hyperproliferation of the interfollicular epidermis
[11]; topical, 50 uM, after 5 doses
  observed phenotype (entry into anagen): pigmentation and hair growth, indicative of entry into anagen

From US10828289B2, “Hair follicle stem cell activation and hair growth” (THE REGENTS OF THE UNIVERSITY OF CALIFORNIA, priority 2016, dated 2020)
